The values below come from PubChem BioAssay AID328 (DTP/NCI, 2004).

The assay deals with BDF1 mice, P388 leukemia ip, median survival T/C. Kind of assay: NCI In Vivo Anticancer Drug Screen. Data for tumor model P388 Leukemia (intraperitoneal) in B6D2F1 (BDF1) mice. The note with it: endpoint: median survival time, higher = longer survival. The essentials: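 Each value expresses how treatment altered survival: treated-mouse outcome over vehicle-mouse outcome, both groups bearing the transplanted tumour.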

The mark [1] stands for this setting: dose: 100.0 mg/kg/injection, schedule: Q04DX003 (ip), vehicle: Klucel (hydroxypropylcellulose) (HPC).
Where [2] appears, read: dose: 200.0 mg/kg/injection, schedule: Q04DX003 (ip), vehicle: Klucel (hydroxypropylcellulose) (HPC).
[3] abbreviates: dose: 50.0 mg/kg/injection, schedule: Q01DX009 (ip), vehicle: saline with Tween-80.
The mark [4] stands for this setting: dose: 100.0 mg/kg/injection, schedule: Q04DX003 (ip), vehicle: water.
Where [5] appears, read: dose: 50.0 mg/kg/injection, schedule: Q01DX009 (ip), vehicle: saline.
The mark [6] stands for this setting: dose: 12.5 mg/kg/injection, schedule: Q01DX009 (ip), vehicle: other.
Setting [7] is: dose: 25.0 mg/kg/injection, schedule: Q01DX009 (ip), vehicle: other.
The mark [8] stands for this setting: dose: 50.0 mg/kg/injection, schedule: Q01DX009 (ip), vehicle: other.
[9] abbreviates: dose: 100.0 mg/kg/injection, schedule: Q01DX009 (ip), vehicle: saline with Tween-80.
The mark [10] stands for this setting: dose: 200.0 mg/kg/injection, schedule: Q01DX009 (ip), vehicle: saline with Tween-80.
[11] abbreviates: dose: 100.0 mg/kg/injection, schedule: Q04DX003 (ip), vehicle: saline.

SMILES strings stand for the structures. Several values for one entry are separate records, joined by “and”; a condition that tells them apart may be missing. Identical values can stand only once. Inconclusive results and toxic doses are left out.

Consider `CCC(CCC(C)C1CCC2C3CC=C4CC(OC5OC(CO)C(O)C(O)C5O)CCC4(C)C3CCC12C)C(C)C` (stereo not given), for which the T/C was 95 % of control under setting [1] and 95 % of control under setting [2].
As to `CC(C)CC(B1OCCO1)(C1CCCCC1)C1CCCCC1`, the T/C reads like this: (dose: 12.5 mg/kg/injection, schedule: Q01DX009 (ip), vehicle: saline with Tween-80) 100 % of control; (dose: 25.0 mg/kg/injection, schedule: Q01DX009 (ip), vehicle: saline with Tween-80) 100 % of control; under setting [3], 90 % of control; (dose: 100.0 mg/kg/injection, schedule: Q04DX003 (ip), vehicle: other) 109 % of control; (dose: 200.0 mg/kg/injection, schedule: Q04DX003 (ip), vehicle: other) 122 % of control; (dose: 400.0 mg/kg/injection, schedule: Q04DX003 (ip), vehicle: other) 122 % of control.
On to `CC(=O)N1C=Cn2c(cnc2C)C1O` (stereo not given), for which the T/C by setting is: under setting [4], 96 % of control; (dose: 200.0 mg/kg/injection, schedule: Q04DX003 (ip), vehicle: water) 91 % of control; (dose: 400.0 mg/kg/injection, schedule: Q04DX003 (ip), vehicle: water) 99 % of control.
With `CC1=C(O)C(O)C2OC2C1=O` (stereo not given), the T/C reads like this: (dose: 12.5 mg/kg/injection, schedule: Q01DX009 (ip), vehicle: saline) 96 % of control; (dose: 25.0 mg/kg/injection, schedule: Q01DX009 (ip), vehicle: saline) 87 % of control; under setting [5], 107 % of control.
Turning to `O=C(O)CCSSCCC(=O)O`, the T/C reads like this: under setting [1], 95 % of control; under setting [2], 100 % of control.
On to `C[C@]12CC[C@@H]3c4ccc(Oc5nc(N6CC6)nc(N6CC6)n5)cc4CC[C@H]3[C@@H]1CCC2=O`, for which the T/C is, setting by setting: (dose: 3.12 mg/kg/injection, schedule: Q01DX009 (ip), vehicle: saline with Tween-80) 91 % of control; (dose: 6.25 mg/kg/injection, schedule: Q01DX009 (ip), vehicle: saline with Tween-80) 100 % of control.
Take `COc1cc2c(cc1Oc1c(Oc3c(O)c(OC)cc4c3C(CC(C)C)N(C)CC4)c(OC)cc3c1C(CC(C)C)N(C)CC3)C(CC(C)C)N(C)CC2` (stereo not given): the T/C (dose: 12.5 mg/kg/injection, schedule: Q01DX010 (ip), vehicle: saline) is 95 % of control; the T/C (dose: 25.0 mg/kg/injection, schedule: Q01DX010 (ip), vehicle: saline) was 90 % of control; the T/C (dose: 50.0 mg/kg/injection, schedule: Q01DX010 (ip), vehicle: saline) is 95 % of control.
`CCOC(=O)/C(C#N)=C1\CCc2cc(OC)ccc21`: the T/C is, setting by setting: (dose: 100.0 mg/kg/injection, schedule: Q01DX001 (ip), vehicle: saline with Tween-80) 92 % of control; (dose: 200.0 mg/kg/injection, schedule: Q01DX001 (ip), vehicle: saline with Tween-80) 88 % of control; (dose: 400.0 mg/kg/injection, schedule: Q01DX001 (ip), vehicle: saline with Tween-80) 88 % of control.
As to `O=NN(CCCl)C(=O)NC1C2CC3CC(C2)CC1C3` (stereo not given), the T/C is, setting by setting: (dose: 5.56 mg/kg/injection, schedule: Q01DX009 (ip), vehicle: other) 207 % of control; (dose: 8.3 mg/kg/injection, schedule: Q04DX003 (ip), vehicle: other) 159 % of control; (dose: 8.33 mg/kg/injection, schedule: Q01DX009 (ip), vehicle: other) 287 % of control; under setting [6], 281 % of control and 305 % of control; (dose: 12.5 mg/kg/injection, schedule: Q04DX003 (ip), vehicle: other) 263 % of control; (dose: 18.7 mg/kg/injection, schedule: Q01DX009 (ip), vehicle: other) 188 % of control. Further, the T/C is, setting by setting: (dose: 18.7 mg/kg/injection, schedule: Q04DX003 (ip), vehicle: other) 222 % of control; under setting [7], 231 % of control; under setting [8], 100 % of control.
In the case of `C(=C\c1cccnc1)/c1ccncc1`, the T/C runs as follows: (dose: 66.0 mg/kg/injection, schedule: Q01DX009 (ip), vehicle: Klucel (hydroxypropylcellulose) (HPC)) 158 % of control; (dose: 66.0 mg/kg/injection, schedule: Q01DX009 (ip), vehicle: saline with Tween-80) 108 % of control; (dose: 100.0 mg/kg/injection, schedule: Q01DX009 (ip), vehicle: Klucel (hydroxypropylcellulose) (HPC)) 178 % of control; under setting [9], 94 % of control; under setting [1], 100 % of control; (dose: 150.0 mg/kg/injection, schedule: Q01DX009 (ip), vehicle: Klucel (hydroxypropylcellulose) (HPC)) 158 % of control. Also, the T/C was 108 % of control (dose: 150.0 mg/kg/injection, schedule: Q01DX009 (ip), vehicle: saline with Tween-80) and 86 % of control under setting [2].
Consider `COc1ccc(CNCCc2ccc(O)c(OC)c2)cc1O`, for which the T/C is, setting by setting: under setting [3], 100 % of control; under setting [9], 102 % of control; under setting [10], 107 % of control.
As to `O=C(Cn1cc(F)c(=O)[nH]c1=O)c1ccc(Cl)s1`, the T/C under setting [3] is 105 % of control; the T/C under setting [9] was 96 % of control; the T/C (dose: 100.0 mg/kg/injection, schedule: Q04DX003 (ip), vehicle: saline with Tween-80) is 94 % of control; the T/C under setting [10] was 103 % of control; the T/C (dose: 200.0 mg/kg/injection, schedule: Q04DX003 (ip), vehicle: saline with Tween-80) was 101 % of control; the T/C (dose: 400.0 mg/kg/injection, schedule: Q01DX009 (ip), vehicle: saline with Tween-80) is 103 % of control. Further, for the setting “dose: 400.0 mg/kg/injection, schedule: Q04DX003 (ip), vehicle: saline with Tween-80”, the T/C was 102 % of control.
As to `COc1cc2c(cc1OC)C(=O)C(c1ccc3c(c1)OCO3)CC2` (stereo not given), the T/C runs as follows: (dose: 12.5 mg/kg/injection, schedule: Q01DX009 (ip), vehicle: water) 98 % of control; (dose: 12.5 mg/kg/injection, schedule: Q04DX003 (ip), vehicle: water) 95 % of control; (dose: 25.0 mg/kg/injection, schedule: Q01DX009 (ip), vehicle: water) 93 % of control; (dose: 25.0 mg/kg/injection, schedule: Q04DX003 (ip), vehicle: water) 101 % of control; (dose: 50.0 mg/kg/injection, schedule: Q01DX009 (ip), vehicle: water) 88 % of control and 92 % of control; (dose: 50.0 mg/kg/injection, schedule: Q04DX003 (ip), vehicle: water) 100 % of control. The T/C runs as follows: (dose: 75.0 mg/kg/injection, schedule: Q01DX009 (ip), vehicle: water) 93 % of control; (dose: 100.0 mg/kg/injection, schedule: Q01DX009 (ip), vehicle: water) 87 % of control; under setting [4], 88 % of control; (dose: 200.0 mg/kg/injection, schedule: Q01DX009 (ip), vehicle: water) 91 % of control.
As for `CC1=C(C(=O)OCc2ccccc2)C(c2ccc(Cl)cc2)C(C(=O)OCc2ccccc2)=C(C)N1`, the T/C under setting [6] is 100 % of control; the T/C under setting [7] was 94 % of control; the T/C under setting [8] is 90 % of control; the T/C (dose: 100.0 mg/kg/injection, schedule: Q01DX009 (ip), vehicle: other) was 89 % of control; the T/C (dose: 200.0 mg/kg/injection, schedule: Q01DX009 (ip), vehicle: other) was 90 % of control.
For the compound `C[C@]12CCCC[C@@H]1CC[C@@H]1[C@@H]2[C@@H](O)C[C@@]2(C)[C@H]1CC[C@]2(C)O`, the T/C by setting is: under setting [3], 104 % of control; under setting [9], 95 % of control; under setting [10], 100 % of control.
On the same counts, the results for `N#Cc1ccc(/C=N/NC(N)=S)s1` are 97 % of control, 102 % of control and 97 % of control.
`CC(=O)CC(C)=O.CC(=O)CC(C)=O.CC(=O)CC(C)=O.[In]`: the T/C by setting is: under setting [11], 109 % of control; (dose: 200.0 mg/kg/injection, schedule: Q04DX003 (ip), vehicle: saline) 104 % of control.
For `CCN(CC)CCCC(C)Nc1c2ccc(C)cc2nc2ccc(OC)cc12` (stereo not given), under setting [3], the T/C is 123 % of control.
With `CC1CN1P(=O)(N1CC=CCC1)N1CC1C` (stereo not given), the T/C is, setting by setting: (dose: 9.38 mg/kg/injection, schedule: Q01DX009 (ip), vehicle: saline) 112 % of control; (dose: 18.7 mg/kg/injection, schedule: Q01DX009 (ip), vehicle: saline) 116 % of control; under setting [5], 162 % of control; (dose: 75.0 mg/kg/injection, schedule: Q01DX009 (ip), vehicle: saline) 91 % of control; under setting [11], 107 % of control.
